Patent publication US20210275581A1 (priority 2020, published 2021)

Key:
[1] = tested on: Staphylococcus aureus USA300 LAC; details: liquid culture, static growth, 37° C., 20 hours, 96 well microtiter plates
Experimental: (§1) Salmonella enterica Serovar typhimurium LT2, Staphylococcus aureus USA300 LAC, and Streptococcus mutans Clark (ATCC) were used for the experiment. […] S. enterica and S. aureus were cultured in Muller Hinton media (Sigma-Aldrich) and S. mutans was cultured in Reinforced Clostridial Media (Oxoid).
(§2) Single bacterial colonies were inoculated into 2 mL of medium in 10 mL capacity culture tubes. Inoculated cultures of S. aureus and S. enterica were grown aerobically at 37° C. with shaking at 200 rpm for 24 hours. S. mutans was cultured statically for 48 hours. […] MICs were determined in cultures grown in 96 well microtiter plates. 100 μL of the standardized culture was sub-cultured into wells containing 100 μL of medium containing antimicrobial compound. Control wells containing 200 μL of media only or media compound were used to standardize the data. The microtiter plates were aerobically incubated statically at 37° C. for 20 hours. Culture optical densities (A600) were determined using Biotek® EPOCH 2 microplate reader.
(§3) The ability of Zn and (CP)2ZnCl4 to inhibit the growth of bacterial pathogens was examined. The minimal inhibitory concentrations of Zn and (CP)2ZnCl4 were determined in liquid culture after static growth.

[2] = tested on: Salmonella enterica Serovar typhimurium LT2; details: liquid culture, static growth, 37° C., 20 hours, 96 well microtiter plates
Experimental: as §1, §2, §3

[3] = tested on: Streptococcus mutans Clark (ATCC); details: for minimal inhibitory concentration S. mutans: liquid culture, static growth, 37° C., 20 hours, 96 well microtiter plates
Experimental: as §1, §2, §3

Structure (SMILES): CCCCCCCCCCCCCCCC[n+]1ccccc1.CCCCCCCCCCCCCCCC[n+]1ccccc1.[Cl][Zn-2]([Cl])([Cl])[Cl] [(CP)2ZnCl4, cetylpyridinium tetrachlorozincate]
- minimal inhibitory concentration S. aureus [1]: 6 µg/mL
- minimal inhibitory concentration S. enterica [2]: 60 µg/mL
- minimal inhibitory concentration S. mutans [3]: 6 µg/mL
- antibacterial activity against S. mutans, compared to CPC ([3]; result in words, comparison with CPC): slight improvement
- MIC for Streptococcus mutans compared with zinc chloride or CPC ([3]; result in words, comparison with zinc chloride or CPC): lower than that of zinc chloride or CPC

Structure (SMILES): [Cl-].[Cl-].[Zn+2] [ZnCl2, zinc chloride, reference compound]
- minimal inhibitory concentration S. enterica [2]: ~300 µg/mL
- minimal inhibitory concentration S. mutans [3]: ~65 µg/mL
